In article PMC11693508, “Pharmacokinetics, bioavailability, and tissue distribution of MRTX1133 in rats using UHPLC-MS/MS” (Frontiers in Pharmacology, 2024):
Where two headings read alike, the source gives them in different places.

Legend:
[1] = design: method as in Wang et al. (2022); details: CD-1 mice, intraperitoneal 30 mg/kg, ref Wang et al. (2022), cited from earlier work
KRAS (G12D) = test system: KRAS (G12D); design: method as in Wang et al., 2022; details: in vitro in cell culture; ref Wang et al., 2022; cited from earlier work
[2] = test system: tumor models, including pancreatic and colorectal cancer; design: method as in Kataoka et al., 2023; Drosten and Barbacid, 2022; details: multiple in vivo tumor models, ref Kataoka et al., 2023, Drosten and Barbacid, 2022; cited from earlier work
[3] = Tissue distribution in rats after single intravenous administration; format: in vivo, Sprague-Dawley rats; details: rat, intravenous 5 mg/kg; for concentration at 2 h: after 2 h; for concentration at 6 h: after 6 h
Procedure: (§1) The distribution of MRTX1133 in the tissues was performed using 25 rats with a single intravenous administration of MRTX1133 at 5 mg kg^-1. The blood samples were collected from abdominal aorta at 0.5 h, 1 h, 2 h, 6 h, and 24 h (five rats at each time point), then the organs such as the heart, liver, spleen, lung, kidney, intestine, and pancreas were immediately collected. The organs were washed with cold physiological saline (4°C), they were weighed and homogenized in cold saline solution (1:3, w/v). The homogenized samples were treated according to the method described in the sample preparation section. The excretion of MRTX1133 in the urine was also investigated by placing the rats in metabolic cages after intravenous administration of MRTX1133 at 5 mg kg^-1 (one rat in each cage), the urine and feces were collected at 2 h, 6 h and 24 h after administration (five rats at each time point), and the content of MRTX1133 in urine and feces was detected by the LC-MS method.

[4] = Excretion in urine and feces of rats after intravenous administration; format: in vivo, Sprague-Dawley rats; details: rat, intravenous 5 mg/kg; for excretion through the kidney as prototype drug (urine): mean ± SD, n = 5
Procedure: as §1

[5] = Stability of MRTX1133 in rat plasma and tissue homogenates under different storage conditions; format: physicochemical; details: for Post-processing stability Accuracy / Short-term stability Accuracy / −80°C for 14 days Accuracy / Freeze-thaw stability Accuracy: n = 6; for −80°C for 14 days Accuracy: long-term; for Freeze-thaw stability Accuracy: three freeze-thaw cycles −20°C to 25°C
Procedure: The stability of MRTX1133 was determined by analyzing LQ, MQ, and HQ samples under different storage conditions, which included three freeze-thaw stability (from −20°C to 25°C), long-term stability (−80°C for 14 days), short-term stability (25°C for 6 h), and post-processing stability (4°C for 24 h). The samples concentrations were compared with the freshly prepared QC samples and were considered stable if the accuracy were 85%–115% and RSD were ±15%.

[6] = rat intestine homogenate, 4.22 ng/mL
[7] = rat intestine homogenate, 21.12 ng/mL
[8] = rat kidney homogenate, 21.12 ng/mL
[9] = rat kidney homogenate, 211.20 ng/mL
[10] = rat kidney homogenate, 1,056.00 ng/mL
[11] = rat liver homogenate, 21.12 ng/mL
[12] = rat liver homogenate, 211.20 ng/mL
[13] = rat liver homogenate, 2,112.00 ng/mL

## C#Cc1c(F)ccc2cc(O)cc(-c3ncc4c(N5CC6CCC(C5)N6)nc(OC[C@@]56CCCN5C[C@H](F)C6)nc4c3F)c12 [MRTX1133]
[1]; 4 h
  plasma concentration: ~1,000 ng mL^-1
[1]; 8 h
  plasma concentration: ~100 ng/mL
[1]; 24 h
  plasma concentration: approximately 50 ng mL^-1
[1]; at 1 h
  Cmax: approximately 7,000 ng mL^-1
KRAS (G12D)
  potency: single digit nanomolar
  selectivity for KRAS (G12D) compared with wild-type KRAS: more than 1000 fold
[2]
  antitumor effect in vivo: induces tumor regression
[3]; Sprague-Dawley, heart, n = 5, read-out: highest concentration in heart
  concentration at 2 h: 879 ± 450 ng/g
[3]; Sprague-Dawley, kidney, n = 5, read-out: highest concentration in kidney
  concentration at 2 h: 2580 ng/g
[3]; Sprague-Dawley, liver, at 1 h, n = 5, read-out: highest concentration in liver
  concentration at 1 h: 5360 ng/g
[3]; Sprague-Dawley, lung, n = 5, read-out: highest concentration in lung
  concentration at 2 h: 1230 ng/g
[3]; Sprague-Dawley, pancreas, n = 5, read-out: highest concentration in pancreas
  concentration at 6 h: 156 ± 34.2 ng/g
[3]; Sprague-Dawley, spleen, n = 5, read-out: highest concentration in spleen
  concentration at 6 h: 1860 ± 224 ng/g
[3]
  detection in testis: no MRTX1133
[3]; 2 h after administration
  concentration in liver, spleen, kidney and lung compared with plasma: higher than the concentration of the drug in plasma
[3]; liver, kidney, lung, spleen, heart, pancreas (except intestine), 24 h
  detection in organs at 24 h: still detectable
[3]; liver, kidney, lung, spleen, heart, pancreas, intestine
  tissue distribution: widely distributed
[4]; 6 h
  excretion through the kidney as prototype drug (urine): 10.43% ± 2.89%
  excretion through the kidney as prototype drug (urine), range: 6.53%–13.54%
[4]; 24 h, 5 mg/kg
  excretion through the kidney as prototype drug (urine): 22.59% ± 3.22%
[4]; 24 h
  excretion through the kidney as prototype drug (urine), range: 17.60%–25.92%
[4]; feces 24 h
  MRTX1133 in feces: no MRTX1133 was found
[5]; 25°C for 6 h, 4°C for 24 h, three freeze-thaw cycles (−20°C to 25°C), −80°C for 14 days
  stability in plasma samples and homogenates: stable
[5]; rat intestine homogenate, 4.22 ng/mL, 4°C for 24 h
  Post-processing stability Accuracy: 98.23%
[5]; rat intestine homogenate, 4.22 ng/mL, 25°C for 6 h
  Short-term stability Accuracy: 95.41%
[5]; [6]
  −80°C for 14 days Accuracy: 93.31%
  Freeze-thaw stability Accuracy: 95.83%
[5]; rat intestine homogenate, 21.12 ng/mL, 4°C for 24 h
  Post-processing stability Accuracy: 98.14%
[5]; rat intestine homogenate, 21.12 ng/mL, 25°C for 6 h
  Short-term stability Accuracy: 96.69%
[5]; [7]
  −80°C for 14 days Accuracy: 92.54%
  Freeze-thaw stability Accuracy: 94.42%
[5]; rat intestine homogenate, 105.60 ng/mL, 25°C for 6 h
  Short-term stability Accuracy: 94.97%
[5]; rat intestine homogenate, 105.60 ng/mL
  −80°C for 14 days Accuracy: 90.35%
[5]; rat kidney homogenate, 21.12 ng/mL, 4°C for 24 h
  Post-processing stability Accuracy: 101.18%
[5]; rat kidney homogenate, 21.12 ng/mL, 25°C for 6 h
  Short-term stability Accuracy: 103.01%
[5]; [8]
  −80°C for 14 days Accuracy: 95.23%
  Freeze-thaw stability Accuracy: 95.07%
[5]; rat kidney homogenate, 211.20 ng/mL, 4°C for 24 h
  Post-processing stability Accuracy: 98.13%
[5]; rat kidney homogenate, 211.20 ng/mL, 25°C for 6 h
  Short-term stability Accuracy: 97.29%
[5]; [9]
  −80°C for 14 days Accuracy: 92.7%
  Freeze-thaw stability Accuracy: 95.58%
[5]; rat kidney homogenate, 1,056.00 ng/mL, 4°C for 24 h
  Post-processing stability Accuracy: 95.47%
[5]; rat kidney homogenate, 1,056.00 ng/mL, 25°C for 6 h
  Short-term stability Accuracy: 97.04%
[5]; [10]
  −80°C for 14 days Accuracy: 91.34%
  Freeze-thaw stability Accuracy: 93.72%
[5]; rat liver homogenate, 21.12 ng/mL, 4°C for 24 h
  Post-processing stability Accuracy: 104.23%
[5]; rat liver homogenate, 21.12 ng/mL, 25°C for 6 h
  Short-term stability Accuracy: 101.44%
[5]; [11]
  −80°C for 14 days Accuracy: 96.4%
  Freeze-thaw stability Accuracy: 97.72%
[5]; rat liver homogenate, 211.20 ng/mL, 4°C for 24 h
  Post-processing stability Accuracy: 105.35%
[5]; rat liver homogenate, 211.20 ng/mL, 25°C for 6 h
  Short-term stability Accuracy: 105.89%
[5]; [12]
  −80°C for 14 days Accuracy: 94.88%
  Freeze-thaw stability Accuracy: 96.69%
[5]; rat liver homogenate, 2,112.00 ng/mL, 4°C for 24 h
  Post-processing stability Accuracy: 97.47%
[5]; rat liver homogenate, 2,112.00 ng/mL, 25°C for 6 h
  Short-term stability Accuracy: 98.17%
[5]; [13]
  −80°C for 14 days Accuracy: 93.33%
  Freeze-thaw stability Accuracy: 92.38%
[5]; rat plasma, 4.22 ng/mL, 4°C for 24 h
  Post-processing stability Accuracy: 107.16%
[5]; rat plasma, 4.22 ng/mL, 25°C for 6 h
  Short-term stability Accuracy: 108.92%
[5]; rat plasma, 4.22 ng/mL
  −80°C for 14 days Accuracy: 103.66%
  Freeze-thaw stability Accuracy: 101.64%
[5]; rat plasma, 105.60 ng/mL, 4°C for 24 h
  Post-processing stability Accuracy: 94.98%
[5]; rat plasma, 105.60 ng/mL, 25°C for 6 h
  Short-term stability Accuracy: 95.35%
[5]; rat plasma, 105.60 ng/mL
  −80°C for 14 days Accuracy: 90.18%
  Freeze-thaw stability Accuracy: 92.05%
[5]; rat plasma, 1,056.00 ng/mL, 4°C for 24 h
  Post-processing stability Accuracy: 92.05%
[5]; rat plasma, 1,056.00 ng/mL, 25°C for 6 h
  Short-term stability Accuracy: 92.49%
[5]; rat plasma, 1,056.00 ng/mL
  −80°C for 14 days Accuracy: 90.23%
  Freeze-thaw stability Accuracy: 90.04%
